Tests used:
Assay type in all cases: biochemical
[1] = biological target: p110γ (Homo sapiens, UniProt P48736); test: Transcreener KINASE Assay, kinase inhibition of p110γ; conditions: for PI3Kγ IH % @ 1 uM: 1 uM test compound; for IC50: read-out: PI3Kγ IC50
Summary of the method: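 Recombinant PI3K isoforms (p85α complexes or p110γ alone) reacted 80 min at room temperature, then ADP detection mix added for 60 min. ADP formation read by far-red competitive fluorescence polarization immunoassay; IC50 by curve fitting.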

[2] = biological target: p110δ/p85α (Homo sapiens, UniProt O00329); test: Transcreener KINASE Assay, kinase inhibition of p110δ/p85α; conditions: for PI3Kδ IH % @ 1 uM: 1 uM test compound; for IC50: read-out: PI3Kδ IC50
Summary of the method: (§1)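 Kinase reactions run 80 min at room temperature, pH buffered with 50 mM HEPES plus 3 mM MgCl2 and 0.03% CHAPS; the PIP2/ATP mix added was 30 uM/10 uM. Generated ADP is then read by FP immunoassay.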

[3] = biological target: p110β/p85α (Homo sapiens, UniProt P42338); test: Transcreener KINASE Assay, kinase inhibition of p110β/p85α; conditions: for PI3Kβ IH % @ 1 uM: 1 uM test compound; for IC50: read-out: PI3Kβ IC50
Summary of the method: as §1

p110δ/p85α, sequence (O00329 whole entry): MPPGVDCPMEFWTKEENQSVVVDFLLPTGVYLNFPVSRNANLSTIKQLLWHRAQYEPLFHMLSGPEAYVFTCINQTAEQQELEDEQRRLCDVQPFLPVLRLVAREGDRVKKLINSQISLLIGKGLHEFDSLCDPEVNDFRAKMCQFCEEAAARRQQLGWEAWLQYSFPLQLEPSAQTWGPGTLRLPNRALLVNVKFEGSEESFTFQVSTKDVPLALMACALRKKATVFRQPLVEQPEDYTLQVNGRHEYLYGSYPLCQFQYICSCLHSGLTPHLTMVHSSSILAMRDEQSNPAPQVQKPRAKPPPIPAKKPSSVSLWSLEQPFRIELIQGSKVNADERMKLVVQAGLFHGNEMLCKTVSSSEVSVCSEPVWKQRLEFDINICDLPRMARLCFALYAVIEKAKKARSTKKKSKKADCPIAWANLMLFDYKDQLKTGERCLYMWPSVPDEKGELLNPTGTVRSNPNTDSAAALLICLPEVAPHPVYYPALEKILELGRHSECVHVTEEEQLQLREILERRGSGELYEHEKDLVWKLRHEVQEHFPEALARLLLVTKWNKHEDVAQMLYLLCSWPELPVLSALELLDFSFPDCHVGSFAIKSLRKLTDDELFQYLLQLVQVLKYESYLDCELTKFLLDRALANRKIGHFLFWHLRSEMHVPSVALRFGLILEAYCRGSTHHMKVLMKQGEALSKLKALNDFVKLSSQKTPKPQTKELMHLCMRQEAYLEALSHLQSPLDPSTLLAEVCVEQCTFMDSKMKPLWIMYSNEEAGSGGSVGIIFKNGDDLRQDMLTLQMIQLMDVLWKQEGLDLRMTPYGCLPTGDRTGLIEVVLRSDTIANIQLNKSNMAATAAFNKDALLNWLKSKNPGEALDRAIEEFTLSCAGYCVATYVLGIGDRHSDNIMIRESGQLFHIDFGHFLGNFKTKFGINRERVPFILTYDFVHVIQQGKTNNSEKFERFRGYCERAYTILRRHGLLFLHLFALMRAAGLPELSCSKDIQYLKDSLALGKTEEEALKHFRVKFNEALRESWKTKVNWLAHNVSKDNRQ
p110δ/p85α, sequence (P27986 whole entry partner): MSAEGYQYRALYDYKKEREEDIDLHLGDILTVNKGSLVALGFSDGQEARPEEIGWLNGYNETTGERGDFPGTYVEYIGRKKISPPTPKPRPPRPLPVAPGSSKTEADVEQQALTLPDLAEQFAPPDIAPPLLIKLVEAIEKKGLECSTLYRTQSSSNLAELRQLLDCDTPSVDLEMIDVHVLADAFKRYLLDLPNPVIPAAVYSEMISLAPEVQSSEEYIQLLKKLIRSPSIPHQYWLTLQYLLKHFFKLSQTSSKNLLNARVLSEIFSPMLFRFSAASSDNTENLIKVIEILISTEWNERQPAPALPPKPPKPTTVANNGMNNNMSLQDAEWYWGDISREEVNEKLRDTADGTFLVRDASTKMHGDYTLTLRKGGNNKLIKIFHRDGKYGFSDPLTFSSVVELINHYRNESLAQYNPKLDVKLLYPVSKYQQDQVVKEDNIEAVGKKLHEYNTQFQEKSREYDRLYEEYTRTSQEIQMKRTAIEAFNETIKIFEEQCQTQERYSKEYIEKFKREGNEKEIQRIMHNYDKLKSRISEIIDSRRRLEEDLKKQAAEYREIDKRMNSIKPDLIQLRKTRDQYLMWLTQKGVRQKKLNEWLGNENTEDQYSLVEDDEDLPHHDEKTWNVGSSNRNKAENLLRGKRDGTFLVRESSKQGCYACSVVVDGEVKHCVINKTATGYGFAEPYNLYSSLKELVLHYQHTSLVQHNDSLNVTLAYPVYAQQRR
p110β/p85α, sequence (P42338 whole entry): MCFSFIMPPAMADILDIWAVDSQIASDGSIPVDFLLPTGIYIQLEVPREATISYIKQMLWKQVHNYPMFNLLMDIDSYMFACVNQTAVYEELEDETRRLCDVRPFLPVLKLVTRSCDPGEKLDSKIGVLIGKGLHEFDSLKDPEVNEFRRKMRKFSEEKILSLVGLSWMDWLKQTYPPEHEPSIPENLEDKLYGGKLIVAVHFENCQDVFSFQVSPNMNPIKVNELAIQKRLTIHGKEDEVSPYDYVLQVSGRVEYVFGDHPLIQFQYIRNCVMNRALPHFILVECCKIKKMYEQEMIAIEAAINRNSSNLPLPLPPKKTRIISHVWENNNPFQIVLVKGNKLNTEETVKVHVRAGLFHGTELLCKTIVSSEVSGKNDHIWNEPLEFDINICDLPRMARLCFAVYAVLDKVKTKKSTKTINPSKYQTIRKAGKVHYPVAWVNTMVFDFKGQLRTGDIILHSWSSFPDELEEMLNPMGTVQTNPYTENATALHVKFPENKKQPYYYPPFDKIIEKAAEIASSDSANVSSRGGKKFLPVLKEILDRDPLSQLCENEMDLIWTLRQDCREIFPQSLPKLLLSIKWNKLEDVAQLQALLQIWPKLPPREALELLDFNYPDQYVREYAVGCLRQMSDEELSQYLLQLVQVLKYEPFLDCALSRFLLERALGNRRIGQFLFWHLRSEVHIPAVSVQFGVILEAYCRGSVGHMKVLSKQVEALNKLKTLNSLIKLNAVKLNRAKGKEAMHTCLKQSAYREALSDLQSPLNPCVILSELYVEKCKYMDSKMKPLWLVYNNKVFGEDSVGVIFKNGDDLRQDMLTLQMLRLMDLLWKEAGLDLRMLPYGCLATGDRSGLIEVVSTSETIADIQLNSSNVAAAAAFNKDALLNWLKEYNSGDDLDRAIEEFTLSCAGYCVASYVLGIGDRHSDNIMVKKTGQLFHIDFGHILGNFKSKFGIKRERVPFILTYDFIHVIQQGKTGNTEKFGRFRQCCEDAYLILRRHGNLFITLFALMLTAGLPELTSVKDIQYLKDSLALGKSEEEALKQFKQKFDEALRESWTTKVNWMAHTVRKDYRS
p110β/p85α, sequence (P27986 2-724 partner): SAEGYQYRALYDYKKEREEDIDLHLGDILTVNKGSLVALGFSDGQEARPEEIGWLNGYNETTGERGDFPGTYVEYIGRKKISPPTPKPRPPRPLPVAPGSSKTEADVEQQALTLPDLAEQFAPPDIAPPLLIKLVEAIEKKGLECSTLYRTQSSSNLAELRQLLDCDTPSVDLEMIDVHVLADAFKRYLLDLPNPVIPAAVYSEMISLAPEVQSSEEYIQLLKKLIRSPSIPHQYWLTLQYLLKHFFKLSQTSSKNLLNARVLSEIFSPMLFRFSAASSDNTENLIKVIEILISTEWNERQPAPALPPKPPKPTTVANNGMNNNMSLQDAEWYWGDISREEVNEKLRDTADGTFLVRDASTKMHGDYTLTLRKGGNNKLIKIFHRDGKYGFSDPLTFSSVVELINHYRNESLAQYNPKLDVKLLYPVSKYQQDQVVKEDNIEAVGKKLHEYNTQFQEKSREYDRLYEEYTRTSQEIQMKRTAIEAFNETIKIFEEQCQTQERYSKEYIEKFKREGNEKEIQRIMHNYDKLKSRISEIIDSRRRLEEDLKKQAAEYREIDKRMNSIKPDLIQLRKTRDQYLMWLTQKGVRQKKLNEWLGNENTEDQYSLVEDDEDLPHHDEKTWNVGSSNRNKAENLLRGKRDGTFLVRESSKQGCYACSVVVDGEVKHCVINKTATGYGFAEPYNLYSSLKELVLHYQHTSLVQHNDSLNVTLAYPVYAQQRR
p110γ, sequence (P48736 whole entry, canonical isoform): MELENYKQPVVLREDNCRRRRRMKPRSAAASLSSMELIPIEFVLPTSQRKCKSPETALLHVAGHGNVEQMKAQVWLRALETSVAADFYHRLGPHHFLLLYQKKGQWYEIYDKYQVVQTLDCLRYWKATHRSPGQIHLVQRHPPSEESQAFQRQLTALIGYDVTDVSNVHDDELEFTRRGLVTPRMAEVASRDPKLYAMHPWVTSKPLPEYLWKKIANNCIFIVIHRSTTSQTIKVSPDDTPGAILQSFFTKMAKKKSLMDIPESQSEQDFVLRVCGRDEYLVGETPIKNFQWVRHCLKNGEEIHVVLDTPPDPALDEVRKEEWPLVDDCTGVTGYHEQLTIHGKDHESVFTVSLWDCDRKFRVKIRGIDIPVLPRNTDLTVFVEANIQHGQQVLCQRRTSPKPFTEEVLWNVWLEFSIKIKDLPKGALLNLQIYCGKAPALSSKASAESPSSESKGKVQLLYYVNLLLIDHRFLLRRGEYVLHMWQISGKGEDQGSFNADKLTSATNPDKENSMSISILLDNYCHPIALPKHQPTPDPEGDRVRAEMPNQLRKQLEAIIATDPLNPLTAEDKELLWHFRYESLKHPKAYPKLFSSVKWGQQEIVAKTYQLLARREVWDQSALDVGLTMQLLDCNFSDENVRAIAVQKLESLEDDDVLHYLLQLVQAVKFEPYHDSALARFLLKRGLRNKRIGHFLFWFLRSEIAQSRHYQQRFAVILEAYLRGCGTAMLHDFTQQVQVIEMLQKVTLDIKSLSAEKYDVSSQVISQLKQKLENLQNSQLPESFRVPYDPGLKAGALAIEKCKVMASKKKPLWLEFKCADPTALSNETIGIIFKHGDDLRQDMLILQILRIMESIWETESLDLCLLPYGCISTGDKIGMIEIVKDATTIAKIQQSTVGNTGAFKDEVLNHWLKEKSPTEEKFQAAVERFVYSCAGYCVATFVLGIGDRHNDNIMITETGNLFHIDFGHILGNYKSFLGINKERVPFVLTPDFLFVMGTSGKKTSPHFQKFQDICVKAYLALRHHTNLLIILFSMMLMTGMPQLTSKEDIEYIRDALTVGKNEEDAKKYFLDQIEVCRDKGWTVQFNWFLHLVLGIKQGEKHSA

PI3Kγ IH % @ 1 uM [1] [%]	PI3Kδ IH % @ 1 uM [2] [%]	IC50 [2] [nM]	PI3Kβ IH % @ 1 uM [3] [%]	IC50 [1] [nM]	IC50 [3] [nM]	SMILES
63.7	71.9	212	−3.1			COc1cccc(-n2c([C@@H]3CCN3c3ncnc4[nH]cnc34)nn3ccc(Cl)c3c2=O)c1 [Compound 33]
91.4	91.2	23	79.3	6	273	CC(=O)c1cnc(N)nc1N1C[C@H](C)C1c1nn2ccc(F)c2c(=O)n1-c1ccc(F)cc1 (some centres unmarked) [Compound 438]
59.9	74.6	176	13.8			COCCNC(=O)c1c[nH]c2ncnc(N3CC[C@H]3c3nn4ccc(Cl)c4c(=O)n3-c3ccccc3)c12 [Compound 228]
55.9	29.1		5.5			N#Cc1cc2nc(N)nc(N3CCC[C@H]3c3nn4ccc(Cl)c4c(=O)n3-c3ccccc3)n2n1 [Compound 320]
95.7	97.3	2	85.0		165	CC(=O)c1c[nH]c2ncnc(N3CCC[C@H]3c3nn4ccc(F)c4c(=O)n3-c3ccccc3)c12 [Compound 218]
85.6	94.3		47.8	239		CC(Nc1ncnc2[nH]cnc12)c1cc2cccn2c(=O)n1-c1ccccc1 (centres unmarked) [Compound 119, 3-(1-(9H-purin-6-ylamino)ethyl)-2-phenylpyrrolo[1,2-c]pyrimidin-1(2H)-one]
86.8	97.1	11	74.4	89	300	CS(=O)(=O)[C@H]1C[C@@H](c2nn3ccc(Cl)c3c(=O)n2-c2ccccc2)N(c2ncnc3[nH]cnc23)C1 [Compound 366]
92.7	>100	3	82.6	51	100	Nc1ncnc(N2CCC[C@H]2c2nn3ccc(Cl)c3c(=O)n2-c2ccccc2)c1Cl [Compound 27]
86.8	97.8	3	61.6	101		CC(=O)c1c(N)ncnc1NC(C)c1cn2ccc(Cl)c2c(=O)n1-c1ccccc1 (centres unmarked) [Compound 274]

More lines, now with the values behind:

SMILES	PI3Kγ IH % @ 1 uM [1] [%]	PI3Kδ IH % @ 1 uM [2] [%]	IC50 [2] [nM]	PI3Kβ IH % @ 1 uM [3] [%]	IC50 [1] [nM]	IC50 [3] [nM]
CC(Nc1ncnc(N)c1C#N)c1cn2ccc(Cl)c2c(=O)n1-c1ccc(F)cc1 (centres unmarked) [Compound 79]	91.6	99.0		96.3		
O=c1c2c(Cl)ccn2nc([C@@H]2CCCN2c2ncnc3[nH]cnc23)n1C1CCC1 [Compound 374]			4	58.7	155	517
CO[C@@H]1C[C@@H](c2nn3ccc(Cl)c3c(=O)n2-c2ccccc2)N(c2ncnc3[nH]cnc23)C1 [Compound 72, 5-chloro-2-((2S,4R)-4-methoxy-1-(9H-purin-6-yl)pyrrolidin-2-yl)-3-phenylpyrrolo[2,1-f][1,2,4]triazin-4(3H)-one]	49.5	91.6	88	13.5		
CC(Nc1ncnc(N)c1C#N)c1cc2ncc(Cl)n2c(=O)n1-c1ccccc1 (centres unmarked) [Compound 117]	>100	>100	5	>100	43	38
O=c1c2c(Cl)ccn2nc([C@@H]2CCCCN2c2ncnc3[nH]cnc23)n1-c1ccccc1 [Compound 203]	65.3	94.6	100	23.3		
N#Cc1c[nH]c2ncnc(N3CC[C@H]3c3nn4ccc(Cl)c4c(=O)n3C3CCC3)c12 [Compound 375]	65.7	92.6	43	32.9		
